Measured values taken from patent publication US11447517B2, “Galactoside inhibitor of galectins” (GALECTO BIOTECH AB, priority 2018, dated 2022).

Biological target: galectin-3 (Homo sapiens (Human), UniProt P17931)
Experiment: Fluorescence anisotropy assay, inhibition of galectin / fluorescein tagged saccharide probe interaction
Type: binding
Protocol: Evaluation of Kd Values The affinity of Example 1-71 for galectins were determined by a fluorescence anisotropy assay where the compound was used as an inhibitor of the interaction between galectin and a fluorescein tagged saccharide probe as described Sörme, P., Kahl-Knutsson, B., Huflejt, M., Nilsson, U. J., and Leffler H. (2004) Fluorescence polarization as an analytical tool to evaluate galectin-ligand interactions. Anal. Biochem. 334: 36-47, (Sörme et al., 2004) and Monovalent interactions of Galectin-1 By Salomonsson, Emma; Larumbe, Amaia; Tejler, Johan; Tullberg, Erik; Rydberg, Hanna; Sundin, Anders; Khabut, Areej; Frejd, Torbjorn; Lobsanov, Yuri D.; Rini, James M.; et al, From Biochemistry (2010), 49(44), 9518-9532, (Salomonsson et al., 2010). […] 100 nM albumin was included as a carrier to prevent protein loss at such low concentration of galectin.

galectin-3, sequence (P17931 whole entry): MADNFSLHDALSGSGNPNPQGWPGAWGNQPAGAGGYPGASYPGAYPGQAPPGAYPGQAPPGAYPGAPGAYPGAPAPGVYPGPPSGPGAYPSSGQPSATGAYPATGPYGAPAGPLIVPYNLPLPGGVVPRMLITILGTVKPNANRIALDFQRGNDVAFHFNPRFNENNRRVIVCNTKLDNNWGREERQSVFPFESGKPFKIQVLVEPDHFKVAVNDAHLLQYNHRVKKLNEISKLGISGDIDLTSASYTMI

| Structure (SMILES) | Kd [nM] |
| --- | --- |
| COC1[C@@H](Sc2cc(Cl)ccc2C(=O)N(C)C)OC(CO)[C@H](O)[C@@H]1n1cc(-c2cc(F)c(F)c(F)c2)nn1 (stereo partly drawn) [Example 3, 4-Chloro-N,N-dimethyl-benzamide-2-yl 3-deoxy-3-[4-(3,4,5-trifluorophenyl)-1H-1,2,3-triazol-1-yl]-2-O-methyl-1-thio-α-D-galactopyranoside] | 8 |
| COC1[C@@H](Sc2cc(Cl)ccc2C(=O)N(C)C)OC(CO)[C@H](O)[C@@H]1n1cc(-c2cc(F)c(Cl)c(F)c2)nn1 (stereo partly drawn) [Example 4, 4-Chloro-N,N-dimethyl-benzamide-2-yl 3-[4-(4-chloro-3,5-difluorophenyl)-1H-1,2,3-triazol-1-yl]-3-deoxy-2-O-methyl-1-thio-α-D-galactopyranoside] | 14 |
| OC[C@H]1O[C@H](Sc2cncc(Br)c2)[C@H](OCC(O)C(F)(F)F)[C@@H](n2cc(-c3cc(F)c(F)c(F)c3)nn2)[C@H]1O (stereo partly drawn) [Example 5, 5-Bromopyridin-3-yl 3-deoxy-3-[4-(3,4,5-trifluorophenyl)-1H-1,2,3-triazol-1-yl]-2-O-(1,1,1-trifluoro-2-hydroxyprop-3-yl)-1-thio-α-D-galactopyranoside] | 82 |
| CO[C@@H]1[C@@H](n2cc(-c3cc(F)c(Cl)c(F)c3)nn2)[C@@H](O)[C@@H](CO)O[C@@H]1Sc1cc(Cl)ccc1C(=O)N1CCCCC1 [Example 6, 2-(N-piperidinyl-carbonyl)-5-chlorophenyl 3-[4-(4-chloro-3,5-difluorophenyl)-1H-1,2,3-triazol-1-yl]-3-deoxy-2-O-methyl-1-thio-α-D-galactopyranoside] | 120 |
| COC1[C@@H](Sc2cc(Cl)cnc2N2CC3(COC3)C2)OC(CO)[C@H](O)[C@@H]1n1cc(-c2cc(F)c(F)c(F)c2)nn1 (stereo partly drawn) [Example 10, 5-Chloro-2-{N-(2-oxa)-6-azaspiro[3.3]heptanyl}-pyridin-3-yl 3-deoxy-3-[4-(3,4,5-trifluorophenyl)-1H-1,2,3-triazol-1-yl]-2-O-methyl-1-thio-α-D-galactopyranoside] | 33 |
| COC1[C@@H](Sc2cc(Cl)cnc2N2CC3(COC3)C2)OC(CO)[C@H](O)[C@@H]1n1cc(-c2cc(F)c(Cl)c(F)c2)nn1 (stereo partly drawn) [Example 11, 5-Chloro-2-{N-(2-oxa)-6-azaspiro[3.3]heptanyl}-pyridin-3-yl 3-[4-(4-chloro-3,5-difluorophenyl)-1H-1,2,3-triazol-1-yl]-3-deoxy-2-O-methyl-1-thio-α-D-galactopyranoside] | 49 |
| CO[C@@H]1[C@@H](n2cc(-c3cc(F)c(C)c(F)c3)nn2)[C@@H](O)[C@@H](CO)O[C@@H]1Sc1cc(Cl)cnc1C#N [Example 12, 5-Chloro-2-cyanopyridin-3-yl 3-deoxy-3-[4-(3,5-difluoro-4-methylphenyl)-1H-1,2,3-triazol-1-yl]-2-O-methyl-1-thio-α-D-galactopyranoside] | 12 |
| CO[C@@H]1[C@@H](n2cc(-c3cc(F)c(C)c(F)c3)nn2)[C@@H](O)[C@@H](CO)O[C@@H]1Sc1cc(Cl)ccc1C#N [Example 14, 5-Chloro-2-cyanophenyl 3-deoxy-3-[4-(3,5-difluoro-4-methylphenyl)-1H-1,2,3-triazol-1-yl]-2-O-methyl-1-thio-α-D-galactopyranoside] | 50 |
| CCO[C@@H]1[C@@H](n2cc(-c3cc(F)c(F)c(F)c3)nn2)[C@@H](O)[C@@H](CO)O[C@@H]1Sc1cc(Cl)cnc1C#N [Example 16, 5-Chloro-2-cyanopyridin-3-yl 3-deoxy-2-O-ethyl-3-[4-(3,4,5-trifluorophenyl)-1H-1,2,3-triazol-1-yl]-1-thio-α-D-galactopyranoside] | 59 |
| CCO[C@@H]1[C@@H](n2cc(-c3cc(F)c(F)c(F)c3)nn2)[C@@H](O)[C@@H](CO)O[C@@H]1Sc1cncc(Br)c1 [Example 17, 5-Bromopyridin-3-yl 3-deoxy-3-[4-(3,4,5-trifluorophenyl)-1H-1,2,3-triazol-1-yl]-2-O-ethyl-1-thio-α-D-galactopyranoside] | 74 |
| CC(C)O[C@@H]1[C@@H](n2cc(-c3cc(F)c(F)c(F)c3)nn2)[C@@H](O)[C@@H](CO)O[C@@H]1Sc1cncc(Br)c1 [Example 18, 5-Bromopyridin-3-yl 3-deoxy-3-[4-(3,4,5-trifluorophenyl)-1H-1,2,3-triazol-1-yl]-2-O-isopropyl-1-thio-α-D-galactopyranoside] | 150 |
| OC[C@H]1O[C@H](Sc2cncc(Br)c2)[C@H](OCCF)[C@@H](n2cc(-c3cc(F)c(F)c(F)c3)nn2)[C@H]1O [Example 19, 5-Bromopyridin-3-yl 3-deoxy-3-[4-(3,4,5-trifluorophenyl)-1H-1,2,3-triazol-1-yl]-2-O-(2-fluoroethyl)-1-thio-α-D-galactopyranoside] | 20 |
| CNCCO[C@@H]1[C@@H](n2cc(-c3cc(F)c(F)c(F)c3)nn2)[C@@H](O)[C@@H](CO)O[C@@H]1Sc1cncc(Br)c1 [Example 20, 5-Bromopyridin-3-yl 3-deoxy-3-[4-(3,4,5-trifluorophenyl)-1H-1,2,3-triazol-1-yl]-2-O-[2-(methylamino)ethyl]-1-thio-α-D-galactopyranoside] | 71 |
| OCCO[C@@H]1[C@@H](n2cc(-c3cc(F)c(Cl)c(F)c3)nn2)[C@@H](O)[C@@H](CO)O[C@@H]1Sc1ccc(Cl)c(Cl)c1 [Example 21, 3,4-Dichlorophenyl 3-[4-(4-chloro-3,5-difluorophenyl)-1H-1,2,3-triazol-1-yl]-3-deoxy-2-O-(2-hydroxyethyl)-1-thio-α-D-galactopyranoside] | 58 |
| COC1[C@@H](Sc2cc(Cl)c(C#N)nc2N2CC3(COC3)C2)OC(CO)[C@H](O)[C@@H]1n1cc(-c2cc(F)c(Cl)c(F)c2)nn1 (stereo partly drawn) [Example 22, 5-Chloro-6-cyano-2-{N-(2-oxa)-6-azaspiro[3.3]heptanyl}-pyridin-3-yl 3-[4-(4-chloro-3,5-difluorophenyl)-1H-1,2,3-triazol-1-yl]-3-deoxy-2-O-methyl-1-thio-α-D-galactopyranoside] | 60 |
| COC1[C@@H](Sc2cc(Cl)c(C#N)nc2N2CC3(COC3)C2)OC(CO)[C@H](O)[C@@H]1n1cc(-c2cc(F)c(F)c(F)c2)nn1 (stereo partly drawn) [Example 23, 5-Chloro-6-cyano-2-{N-(2-oxa)-6-azaspiro[3.3]heptanyl}-pyridin-3-yl 3-deoxy-3-[4-(3,4,5-trifluorophenyl)-1H-1,2,3-triazol-1-yl]-2-O-methyl-1-thio-α-D-galactopyranoside] | 37 |
| CO[C@@H]1[C@@H](n2cc(-c3cc(F)c(F)c(F)c3)nn2)[C@@H](O)[C@@H](CO)O[C@@H]1Sc1cc(Cl)cnc1-c1cncnc1 [Example 24, 5-Chloro-2-(pyrimidin-5-yl)pyridin-3-yl 3-deoxy-3-[4-(3,4,5-trifluorophenyl)-1H-1,2,3-triazol-1-yl]-2-O-methyl-1-thio-α-D-galactopyranoside] | 28 |
| CO[C@@H]1[C@@H](n2cc(-c3cc(F)c(F)c(F)c3)nn2)[C@@H](O)[C@@H](CO)O[C@@H]1Sc1cc(Cl)cnc1-c1ccccn1 [Example 25, 5-Chloro-2-(pyridin-2-yl)pyridin-3-yl 3-deoxy-3-[4-(3,4,5-trifluorophenyl)-1H-1,2,3-triazol-1-yl]-2-O-methyl-1-thio-α-D-galactopyranoside] | 24 |
| CO[C@@H]1[C@@H](n2cc(-c3cc(F)c(F)c(F)c3)nn2)[C@@H](O)[C@@H](CO)O[C@@H]1Sc1cc(Cl)cnc1-c1cccnc1 [Example 26, 5-Chloro-2-(pyridin-3-yl)pyridin-3-yl 3-deoxy-3-[4-(3,4,5-trifluorophenyl)-1H-1,2,3-triazol-1-yl]-2-O-methyl-1-thio-α-D-galactopyranoside] | 55 |
| CO[C@@H]1[C@@H](n2cc(-c3cc(F)c(F)c(F)c3)nn2)[C@@H](O)[C@@H](CO)O[C@@H]1Sc1cc(Cl)cnc1-c1ccncc1 [Example 27, 5-Chloro-2-(pyridin-4-yl)pyridin-3-yl 3-deoxy-3-[4-(3,4,5-trifluorophenyl)-1H-1,2,3-triazol-1-yl]-2-O-methyl-1-thio-α-D-galactopyranoside] | 56 |
| CO[C@@H]1[C@@H](n2cc(-c3cc(F)c(F)c(F)c3)nn2)[C@@H](O)[C@@H](CO)O[C@@H]1Sc1cc(Cl)cnc1C1=CCNCC1 [Example 28, 5-Chloro-2-(1,2,3,6-tetrahydropyridin-4-yl)pyridin-3-yl 3-deoxy-3-[4-(3,4,5-trifluorophenyl)-1H-1,2,3-triazol-1-yl]-2-O-methyl-1-thio-α-D-galactopyranoside] | 36 |
| CO[C@@H]1[C@@H](n2cc(-c3cc(F)c(F)c(F)c3)nn2)[C@@H](O)[C@@H](CO)O[C@@H]1Sc1cc(Cl)cnc1C1=CCNC1 [Example 29, 5-Chloro-2-(3-pyrrolin-3-yl)pyridin-3-yl 3-deoxy-3-[4-(3,4,5-trifluorophenyl)-1H-1,2,3-triazol-1-yl]-2-O-methyl-1-thio-α-D-galactopyranoside] | 68 |
| CO[C@@H]1[C@@H](n2cc(-c3cc(F)c(F)c(F)c3)nn2)[C@@H](O)[C@@H](CO)O[C@@H]1Sc1cc(Cl)cnc1-c1ncco1 [Example 30, 5-Chloro-2-(oxazol-2-yl)pyridin-3-yl 3-deoxy-3-[4-(3,4,5-trifluorophenyl)-1H-1,2,3-triazol-1-yl]-2-O-methyl-1-thio-α-D-galactopyranoside] | 56 |
| CO[C@@H]1[C@@H](n2cc(-c3cc(F)c(F)c(F)c3)nn2)[C@@H](O)[C@@H](CO)O[C@@H]1Sc1cc(Cl)cnc1-c1nccs1 [Example 31, 5-Chloro-2-(thiazol-2-yl)pyridin-3-yl 3-deoxy-3-[4-(3,4,5-trifluorophenyl)-1H-1,2,3-triazol-1-yl]-2-O-methyl-1-thio-α-D-galactopyranoside] | 300 |
